Literature values, collected in patent US12478612B2 (CinDome Pharma, Inc., priority 2017, dated 2025).
Where two headings read alike, the source gives them in different places.

Experiments:
[1] = weak base

Compound	Human plasma protein binding (Human plasma protein; 10 ng/ml tritiated domperidone) [%]	Human plasma protein binding (Human plasma protein; 100 ng/ml tritiated domperidone) [%]	pKa [1]
5-chloro-1-(1-[3-(2-oxo-2,3-dihydro-1H-benzo[d]imidazol-1-yl)propyl]piperidin-4-yl)-1H-benzo[d]imidazol-2(3H)-one [Domperidone]	91.7	93.0	
O=c1[nH]c2ccccc2n1CCCN1CCC(n2c(=O)[nH]c3cc(Cl)ccc32)CC1 [Domperidone, 5-chloro-1-(1-[3-(2-oxo-2,3-dihydro-1H-benzo[d]imidazol-1-yl)propyl]piperidin-4-yl)-1H-benzo[d]imidazol-2(3H)-one]			7.89
